Results taken from ChEMBL document CHEMBL1201862, “PubChem BioAssay data set” (2004).
Activity calls are given as the source filed them.

Tests used:
[1] = target: T1, Heat shock factor protein 1 (Mus musculus, UniProt P38532); assay: HSF1 potentiators in luciferase reporter cells, confirmation, cell-based, NIH3T3, luminescence, dose retest (AID 435004); format: functional;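 also: stress induced by proteasome inhibitor MG132 added 30 min after compound; luciferase reporter driven by HSF1 response element in NIH3T3 cells; actives raise luminescence as potentiators of the MG132 stress response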
T1 sequence (P38532 whole entry): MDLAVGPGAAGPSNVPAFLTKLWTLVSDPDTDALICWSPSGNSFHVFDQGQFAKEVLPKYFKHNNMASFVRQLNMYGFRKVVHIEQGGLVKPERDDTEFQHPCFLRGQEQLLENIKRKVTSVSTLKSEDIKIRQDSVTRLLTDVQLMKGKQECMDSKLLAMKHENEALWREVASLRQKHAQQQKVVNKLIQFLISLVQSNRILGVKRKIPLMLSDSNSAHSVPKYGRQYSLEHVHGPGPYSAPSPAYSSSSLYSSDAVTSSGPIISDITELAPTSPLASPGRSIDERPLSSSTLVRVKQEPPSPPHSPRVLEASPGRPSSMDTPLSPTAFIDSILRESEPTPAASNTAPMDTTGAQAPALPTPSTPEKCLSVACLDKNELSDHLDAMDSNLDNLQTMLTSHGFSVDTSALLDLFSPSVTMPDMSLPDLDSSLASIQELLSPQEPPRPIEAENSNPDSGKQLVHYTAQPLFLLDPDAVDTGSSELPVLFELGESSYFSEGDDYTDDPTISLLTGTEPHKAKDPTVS

[2] = target: T2, Replicative DNA helicase DnaB (Mycobacterium tuberculosis, UniProt P9WMR3); assay: DnaB intein splicing inhibitors, dose response, biochemical, cell-free fluorescence (AID 449749); format: functional
T2 sequence (P9WMR3 whole entry): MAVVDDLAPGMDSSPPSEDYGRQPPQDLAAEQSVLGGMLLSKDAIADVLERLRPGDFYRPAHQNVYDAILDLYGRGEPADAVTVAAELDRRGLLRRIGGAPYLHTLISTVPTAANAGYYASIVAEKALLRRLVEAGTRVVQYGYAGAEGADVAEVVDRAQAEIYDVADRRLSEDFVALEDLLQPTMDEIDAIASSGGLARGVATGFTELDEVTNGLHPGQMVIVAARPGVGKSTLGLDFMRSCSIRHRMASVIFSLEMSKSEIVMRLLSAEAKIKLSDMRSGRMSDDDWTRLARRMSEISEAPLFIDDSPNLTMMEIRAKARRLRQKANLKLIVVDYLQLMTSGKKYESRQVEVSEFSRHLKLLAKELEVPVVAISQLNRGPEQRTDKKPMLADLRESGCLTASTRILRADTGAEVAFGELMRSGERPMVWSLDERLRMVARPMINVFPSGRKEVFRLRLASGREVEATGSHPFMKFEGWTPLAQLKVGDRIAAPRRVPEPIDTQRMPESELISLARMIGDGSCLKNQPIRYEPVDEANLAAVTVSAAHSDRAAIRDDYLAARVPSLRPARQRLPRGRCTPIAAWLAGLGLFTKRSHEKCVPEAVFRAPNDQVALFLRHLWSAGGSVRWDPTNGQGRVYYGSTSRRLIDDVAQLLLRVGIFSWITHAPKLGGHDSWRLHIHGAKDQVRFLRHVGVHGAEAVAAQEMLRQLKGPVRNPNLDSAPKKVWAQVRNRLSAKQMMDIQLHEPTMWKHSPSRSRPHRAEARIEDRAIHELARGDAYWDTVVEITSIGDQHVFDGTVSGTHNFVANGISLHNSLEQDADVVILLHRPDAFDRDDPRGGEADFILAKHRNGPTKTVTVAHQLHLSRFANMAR

[3] = Luminescence Cell-Based Dose Retest to Confirm Inhibitors of Cancer Stem Cells. [Related pubchem assays (depositor defined):AID2717, AID2721]; format: functional; settings: Homo sapiens
Protein RecA = target: T3, Protein RecA (Mycobacterium tuberculosis, UniProt P9WHJ3); assay: Fluorescence Cell-Free Homogeneous Dose Retest to Identify Inhibitors of RecA-Intein Splicing Activity. [Related pubchem assays (depositor defined):AID2097, AID2223, AID489010, AID492950]; format: functional
T3 sequence (P9WHJ3 whole entry): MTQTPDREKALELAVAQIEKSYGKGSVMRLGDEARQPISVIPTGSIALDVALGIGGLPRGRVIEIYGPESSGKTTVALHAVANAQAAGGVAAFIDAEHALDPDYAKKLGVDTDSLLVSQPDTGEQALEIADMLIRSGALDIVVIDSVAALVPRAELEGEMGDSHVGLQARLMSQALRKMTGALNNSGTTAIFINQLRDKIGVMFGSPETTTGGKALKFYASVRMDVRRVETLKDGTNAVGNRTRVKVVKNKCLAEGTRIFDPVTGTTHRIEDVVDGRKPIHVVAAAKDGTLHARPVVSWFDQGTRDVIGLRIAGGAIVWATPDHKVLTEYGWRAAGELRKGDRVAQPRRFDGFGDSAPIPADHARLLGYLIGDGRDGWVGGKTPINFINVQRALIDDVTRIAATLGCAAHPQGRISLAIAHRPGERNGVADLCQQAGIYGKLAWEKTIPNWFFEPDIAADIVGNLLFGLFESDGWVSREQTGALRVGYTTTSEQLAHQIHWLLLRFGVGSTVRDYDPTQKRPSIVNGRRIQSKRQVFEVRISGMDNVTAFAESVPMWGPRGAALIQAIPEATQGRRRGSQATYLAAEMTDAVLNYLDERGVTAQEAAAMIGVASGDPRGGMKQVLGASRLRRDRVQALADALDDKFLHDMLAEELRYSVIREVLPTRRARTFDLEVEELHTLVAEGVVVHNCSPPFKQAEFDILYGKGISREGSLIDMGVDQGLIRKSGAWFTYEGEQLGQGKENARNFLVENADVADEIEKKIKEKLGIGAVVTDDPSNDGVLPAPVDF

[4] = target: T4, Corticotropin-releasing factor receptor 2/Corticotropin-releasing factor-binding protein (Homo sapiens, UniProt P24387+Q13324); assay: Dose Response confirmation of uHTS hits for small molecule antagonists of the CRF-binding protein and CRF-R2 receptor complex.; format: functional; settings: read-out: IC50_Mean
T4 sequence (Q13324 whole entry): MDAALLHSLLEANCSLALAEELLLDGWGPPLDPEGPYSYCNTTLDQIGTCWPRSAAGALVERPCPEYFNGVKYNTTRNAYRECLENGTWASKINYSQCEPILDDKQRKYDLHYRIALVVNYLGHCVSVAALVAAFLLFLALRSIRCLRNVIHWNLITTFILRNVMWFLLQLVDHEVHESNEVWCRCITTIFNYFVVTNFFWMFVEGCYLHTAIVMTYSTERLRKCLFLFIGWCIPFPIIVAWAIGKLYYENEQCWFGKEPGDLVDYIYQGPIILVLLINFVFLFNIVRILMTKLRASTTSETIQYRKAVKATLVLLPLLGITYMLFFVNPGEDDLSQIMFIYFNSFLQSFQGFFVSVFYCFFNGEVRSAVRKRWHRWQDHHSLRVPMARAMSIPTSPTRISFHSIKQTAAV
T4 sequence (P24387 whole entry): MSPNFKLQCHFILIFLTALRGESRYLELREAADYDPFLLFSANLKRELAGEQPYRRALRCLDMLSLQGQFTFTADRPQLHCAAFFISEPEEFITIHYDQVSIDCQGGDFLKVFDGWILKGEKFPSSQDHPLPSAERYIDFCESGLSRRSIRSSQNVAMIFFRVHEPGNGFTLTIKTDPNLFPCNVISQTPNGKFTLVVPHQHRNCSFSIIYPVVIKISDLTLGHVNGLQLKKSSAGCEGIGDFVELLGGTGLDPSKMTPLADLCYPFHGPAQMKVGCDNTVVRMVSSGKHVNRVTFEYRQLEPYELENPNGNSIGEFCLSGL

[5] = target: T4, Corticotropin-releasing factor receptor 2/Corticotropin-releasing factor-binding protein; assay: activators of CRF receptor 2 with binding protein – uHTS hits, confirmation (AID 602473); format: functional; settings: read-out: EC50_Mean
[6] = CRF-BP/CRF-R2 complex antagonists, dose response, cell-based, uHTS hits, 384-well (AID 651639); format: functional, Homo sapiens; settings: read-out: IC50_Mean
[7] = Luminescence Cell-Based Dose Confirmation HTS to Identify Activators of 5'UTR Stem-Loop Driven Alpha-Synuclein mRNA Translation in H4 Neuroglioblastoma Cells. [Related pubchem assays: 1829 (Project Summary), 1814 (Primary HTS)]; format: functional
H4 = assay: Luminescence Cell-Based Dose Response HTS to Identify Activators of 5'UTR Stem-Loop Driven Prion Protein mRNA Translation in H4 Neuroglioblastoma Cells. [Related pubchem assays: 1829 (Project Summary), 1814 (Primary HTS)]; format: functional; settings: Homo sapiens
[8] = Luminescence Cell-Based Dose Response HTS to Identify Activators of Luciferase Translation or Activity in H4 […] Cells. [Related pubchem assays: 1829 (Project Summary), 1814 (Primary HTS)]; format: functional
cells [9] = format: functional, cell-based
cells [10] = format: functional, cell-based; remark: listed apart in the source
Fatty acid synthase [11] = target: T5, Fatty acid synthase (Homo sapiens, UniProt P49327); assay: FAS thioesterase domain inhibitors, dose response, biochemical, endpoint fluorescence intensity, uHTS hits (AID 624327); format: functional;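 also: fluorescence from hydrolysis of an O-methyl fluorescein acyl ester substrate by the enzyme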
T5 sequence (P49327 whole entry, the tested form may be a part): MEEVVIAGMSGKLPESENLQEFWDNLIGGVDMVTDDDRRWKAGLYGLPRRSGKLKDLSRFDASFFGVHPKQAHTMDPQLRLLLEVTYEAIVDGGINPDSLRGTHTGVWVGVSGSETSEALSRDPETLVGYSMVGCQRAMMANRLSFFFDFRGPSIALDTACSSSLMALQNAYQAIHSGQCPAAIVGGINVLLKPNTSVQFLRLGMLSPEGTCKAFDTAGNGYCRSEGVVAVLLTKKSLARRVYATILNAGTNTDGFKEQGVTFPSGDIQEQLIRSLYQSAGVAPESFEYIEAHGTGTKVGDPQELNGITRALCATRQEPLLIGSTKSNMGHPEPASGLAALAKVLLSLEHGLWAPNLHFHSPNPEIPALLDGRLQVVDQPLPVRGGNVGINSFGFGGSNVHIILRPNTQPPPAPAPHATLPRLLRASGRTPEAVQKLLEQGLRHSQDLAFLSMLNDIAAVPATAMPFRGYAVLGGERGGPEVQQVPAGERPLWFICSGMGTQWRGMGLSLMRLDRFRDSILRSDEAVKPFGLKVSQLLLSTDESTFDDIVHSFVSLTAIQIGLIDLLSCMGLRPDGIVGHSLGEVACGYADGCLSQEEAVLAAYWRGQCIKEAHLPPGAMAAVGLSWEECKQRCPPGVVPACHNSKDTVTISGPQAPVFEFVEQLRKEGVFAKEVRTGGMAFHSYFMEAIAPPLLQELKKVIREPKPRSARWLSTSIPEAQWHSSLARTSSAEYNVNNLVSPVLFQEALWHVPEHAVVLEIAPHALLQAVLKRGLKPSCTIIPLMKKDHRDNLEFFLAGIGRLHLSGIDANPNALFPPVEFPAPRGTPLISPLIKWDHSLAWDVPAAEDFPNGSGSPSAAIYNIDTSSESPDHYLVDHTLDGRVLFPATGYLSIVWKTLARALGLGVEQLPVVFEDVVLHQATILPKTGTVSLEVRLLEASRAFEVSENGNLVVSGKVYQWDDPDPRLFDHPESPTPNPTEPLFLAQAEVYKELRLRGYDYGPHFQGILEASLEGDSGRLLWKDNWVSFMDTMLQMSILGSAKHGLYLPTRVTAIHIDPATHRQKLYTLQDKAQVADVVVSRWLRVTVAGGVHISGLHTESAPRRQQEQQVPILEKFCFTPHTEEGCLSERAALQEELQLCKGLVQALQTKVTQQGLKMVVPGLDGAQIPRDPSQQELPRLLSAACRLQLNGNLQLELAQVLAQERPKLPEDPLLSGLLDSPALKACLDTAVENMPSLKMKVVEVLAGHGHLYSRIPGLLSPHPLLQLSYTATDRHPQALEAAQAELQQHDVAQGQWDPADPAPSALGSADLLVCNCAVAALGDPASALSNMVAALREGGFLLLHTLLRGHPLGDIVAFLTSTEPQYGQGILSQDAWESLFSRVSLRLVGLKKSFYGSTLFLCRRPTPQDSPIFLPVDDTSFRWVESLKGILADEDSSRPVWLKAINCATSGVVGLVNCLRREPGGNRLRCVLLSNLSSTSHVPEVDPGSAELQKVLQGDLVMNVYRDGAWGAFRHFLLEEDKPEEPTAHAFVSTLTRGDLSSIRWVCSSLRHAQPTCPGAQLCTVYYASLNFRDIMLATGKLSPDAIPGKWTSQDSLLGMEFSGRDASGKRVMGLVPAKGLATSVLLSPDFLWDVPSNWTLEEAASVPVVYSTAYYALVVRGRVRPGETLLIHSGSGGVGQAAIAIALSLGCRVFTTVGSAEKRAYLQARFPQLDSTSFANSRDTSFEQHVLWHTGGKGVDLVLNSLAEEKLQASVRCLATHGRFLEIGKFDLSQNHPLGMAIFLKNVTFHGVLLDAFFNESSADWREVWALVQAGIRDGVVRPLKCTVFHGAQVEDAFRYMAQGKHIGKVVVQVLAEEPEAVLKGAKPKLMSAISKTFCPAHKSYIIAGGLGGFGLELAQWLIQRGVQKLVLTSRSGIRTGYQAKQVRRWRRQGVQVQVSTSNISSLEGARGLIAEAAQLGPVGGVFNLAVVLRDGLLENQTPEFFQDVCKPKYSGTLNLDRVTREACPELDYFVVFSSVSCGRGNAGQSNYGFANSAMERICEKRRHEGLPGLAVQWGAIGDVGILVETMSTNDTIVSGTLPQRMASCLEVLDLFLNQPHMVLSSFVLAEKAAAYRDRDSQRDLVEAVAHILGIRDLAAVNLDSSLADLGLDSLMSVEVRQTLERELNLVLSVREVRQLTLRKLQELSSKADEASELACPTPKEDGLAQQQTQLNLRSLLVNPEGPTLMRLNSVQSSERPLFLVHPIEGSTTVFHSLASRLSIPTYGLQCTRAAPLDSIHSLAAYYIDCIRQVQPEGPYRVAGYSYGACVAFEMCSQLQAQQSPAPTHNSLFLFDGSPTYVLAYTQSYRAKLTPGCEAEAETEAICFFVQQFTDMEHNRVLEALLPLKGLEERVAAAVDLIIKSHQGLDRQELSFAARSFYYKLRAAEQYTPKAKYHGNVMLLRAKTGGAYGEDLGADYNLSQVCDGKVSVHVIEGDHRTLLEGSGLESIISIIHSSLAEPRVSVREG

Fatty acid synthase [12] = target: T5, Fatty acid synthase; assay: FAS thioesterase domain inhibitors, dose response, biochemical, kinetic fluorescence intensity (AID 624326); format: functional;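 also: rate of fluorescence rise from hydrolysis of a fluorogenic O-methyl fluorescein ester substrate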
[13] = growth suppression of PTEN-null colon cells, dose response, cell-based, HCT116 PTEN knockout (AID 1047); format: functional;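 also: HCT116 colon tumor cells with PTEN knocked out; cells exposed to compound for 60 hours before readout; potency for loss of cell viability measured by luminescence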
[14] = HEp-2 cell cytotoxicity, dose response, cytotoxicity control for RSV inhibitor project, HTS (AID 2410); format: functional; settings: human respiratory syncytial virus
[15] = A549 cell cytotoxicity, dose response, cytotoxicity control, plate reader, cherry-pick, antagonist series (AID 743412); format: functional, cell-based

Compound	IC50 [4]	EC50 [5]	IC50 [6]	IC50 (Fatty acid synthase [11])	IC50 (Fatty acid synthase [12])	also measured
Cc1ccc(-c2cc(NC(=O)CCl)n(-c3ccccc3)n2)cc1	–	–	–	–	–	EC50 [1]: 9.36 µM (active); AC50 [2]: 16.2 µM (active); AC50 [3]: 5.24 µM (active); EC50 (Protein RecA): 5.68 µM (active)
CCOC(=O)C(CCCCOc1ccc([N+](=O)[O-])cc1)C(=O)OCC	25.9 µM (active)	> 53 µM (inactive)	> 20 µM (inactive)	–	–	–
Cc1cccc(-n2ncc3c(NCc4ccco4)ncnc32)c1	–	–	–	–	–	EC50 [7]: 4.04 µM (active); EC50 (H4): 64.9 µM (active); EC50 [8]: 49.1 µM (active); EC50 (cells [9]): > 350 µM (not active); EC50 (cells [10]): 88.7 µM (active)
O=[N+]([O-])c1cccc(C2NCC(c3ccccc3Cl)c3c2[nH]c2ccccc32)c1 (configuration not stated)	–	–	–	–	–	AC50 [3]: 2.69 µM (active)
Cc1ccc(NC(=O)c2cc([N+](=O)[O-])ccc2N2CCOCC2)cc1C	–	–	–	4.24 µM (active)	2.81 µM (active)	–
COC(=O)c1ccc(Oc2nc(C(N)=O)cc(-c3ccccc3)n2)cc1	–	–	–	–	–	EC50 [13]: 29.9 µM (active)
O=C(/C=C/c1cc2ccccc2o1)c1ccccc1O	–	–	–	–	–	AC50 [3]: 10.6 µM (active)
O=C(OCc1cccc(C(F)(F)F)c1)c1cc([N+](=O)[O-])ccc1N1CCOCC1	–	–	–	7.84 µM (active)	7.24 µM (active)	–
Cc1ccc(NC(=O)Cn2ncn3c(cc4ccccc43)c2=O)cc1F	9.94 µM (active)	> 53 µM (inactive)	7.27 µM (active)	–	–	–
CC1CCc2nc(NC(=O)CN3CCN(c4ccc(F)cc4)CC3)sc2C1 (configuration not stated)	–	–	–	2.04 µM (active)	1.81 µM (active)	–
O=C(/C=C/c1ccc(Cl)c([N+](=O)[O-])c1)Nc1cccc(NC(=O)c2ccco2)c1	–	–	–	–	–	AC50 [3]: 2.56 µM (active); CC50 [14]: 21.2 µM (active)
CCCCCCCCCCCC(=O)NC(Cc1ccc(OC)c([N+](=O)[O-])c1)C(=O)O (configuration not stated)	11.6 µM (active)	> 53 µM (inactive)	> 20 µM (inactive)	–	–	–
C=CCC[C@@H](Cc1ccc(F)cc1)C(=O)OC[C@H](Cc1c[nH]c2ccccc12)NC(=O)[C@H](CC=C)CC(=O)NCCO	–	–	–	10.9 µM (active)	6.03 µM (active)	–
COc1ccc2c(c1)C(=O)N1[C@H]3c4cc(Cl)ccc4OC[C@@H]3[C@H](c3ccccc3)[C@]1(C)C(=O)N2	–	–	–	16.5 µM (active)	18.8 µM (active)	–
COc1ccc(NC(=O)CCCCC(=O)Nc2ccc(OC)cc2OC)c(OC)c1	< 0.368 µM (active)	> 53 µM (inactive)	> 20 µM (inactive)	–	–	–
Cc1ccc(S(=O)(=O)N(C)C[C@H]2Oc3cc(Br)ccc3S(=O)(=O)N([C@H](C)CO)C[C@H]2C)cc1	–	–	–	–	–	AC50 [15]: 33.6 µM (active)
COc1ccc(C2N(Cc3ccccc3)CC(=O)N2/N=C(\C)c2ccccc2)cc1 (configuration not stated)	13.8 µM (active)	> 53 µM (inactive)	4.93 µM (active)	–	–	–
C[C@@H]1CN([C@H](C)CO)C(=O)c2cc(NC(=O)Nc3ccc(F)cc3)ccc2O[C@@H](C)CCCCO[C@H]1CN(C)S(=O)(=O)c1cccs1	–	–	–	5.17 µM (active)	3.69 µM (active)	–
O=C(N/C(=C/C=C/c1ccccc1)C(=O)N1CCCCC1)c1ccc([N+](=O)[O-])cc1	–	–	–	0.295 µM (active)	0.258 µM (active)	–
COC(=O)C1=CN(Cc2ccc(OC)cc2)C=C(C(=O)OC)C1c1cccs1	4.21 µM (active)	> 53 µM (inactive)	> 20 µM (inactive)	–	–	–
